These results are taken from patent EP4752152A1, “STEROID COMPOUND, AND PREPARATION METHOD THEREFOR AND USE THEREOF” (Cholesgen (Shanghai) Co.Ltd., priority 2023, dated 2025).

One experiment deals with SREBP pathway. Put plainly: SREBP luciferase reporter gene system (SRE-luciferase assay). The following applies: Homo sapiens, Huh-7, 16 h, Huh-7/SRE-luc cells, sterol-deficient medium, 0.01-10 µM. The experiment is classed as cell-based, human. In a few lines: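 Huh-7 cells stably carrying LDLR promoter-luciferase plus GFP were treated 16 h in sterol-deficient medium (5% lipoprotein-deficient serum, 2 µM lovastatin, 10 µM mevalonic acid) at 0.01–10 µM. Luciferase/GFP ratio measured as pathway activity; inhibition versus DMSO fitted to a four-parameter model for IC50.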
For orientation: In a reporter assay the amount or activity of a reporter protein is the signal.
A word on the IC50: it is the concentration needed to halve the response being measured. Regarding `C[C@H](CCCC(O)c1ccc(OC(F)(F)F)cc1F)[C@H]1CC[C@H]2[C@H]3[C@H](CC[C@]12C)[C@@]1(C)CC[C@H](O)[C@H](O)[C@@H]1CC3(F)F` (stereo partly drawn) [Compound 62, (1R,3aS,3bS,5aR,6R,7S,9aR,9bS,11aR)-4,4-difluoro-1-[(2R)-6-{2-fluoro-4-[(trifluoromethyl)oxy]phenyl}-6-hydroxyhexan-2-yl]-9a,11a-dimethylhexadecahydro-1H-cyclopenta[1,2-a]phenanthrene-6,7-diol], the IC50 is 0.728 µM.
With `COc1cc(Cl)ccc1[C@@H](O)CCC[C@@H](C)[C@H]1CC[C@H]2C3=C(F)C[C@H]4[C@@H](O)[C@@H](O)CC[C@]4(C)[C@H]3CC[C@]12C` [Compound 111, (1R,3aR,5aR,6R,7S,9aR,9bR,11aR)-1-[(2R,6S)-6-(4-chloro-2-methoxyphenyl)-6-hydroxyhexan-2-yl]-4-fluoro-9a,11a-dimethyl-2,3,3a,5,5a,6,7,8,9,9a,9b,10,11,11a-tetradecahydro-1H-cyclopenta[1,2-a]phenanthrene-6,7-diol], the IC50 turned out to be 1.48 µM.
Still for that read-out and setting: the result for `C[C@H](CCC1CC(=O)C1)[C@H]1CC[C@H]2[C@@H]3CC[C@H]4C[C@@H](O)CC[C@]4(C)[C@H]3CC[C@]12C` [Compound 129, 3-[(3R)-3-[(1R,3aS,3bR,5aS,7S,9aS,9bS,11aR)-7-hydroxy-9a,11a-dimethylhexadecahydro-1H-cyclopenta[1,2-a]phenanthren-1-yl]butyl]cyclobutan-1-one] reads 0.32 µM; that for `COc1nccnc1[C@H](O)CCC[C@@H](C)[C@H]1CC[C@H]2[C@H]3[C@H](CC[C@]12C)[C@@]1(C)CC[C@H](O)[C@H](O)[C@@H]1CC3(F)F` [Compound 154, (1R,3aS,3bS,5aR,6R,7S,9aR,9bS,11aR)-4,4-difluoro-1-[(2R,6R)-6-hydroxy-6-(3-methoxypyrazin-2-yl)hexan-2-yl]-9a,11a-dimethylhexadecahydro-1H-cyclopenta[1,2-a]phenanthrene-6,7-diol], 0.242 µM.
In the case of `C[C@H](CCCC(O)c1ccccc1OC(F)(F)F)[C@H]1CC[C@H]2C3=C(F)C[C@H]4[C@@H](O)[C@@H](O)CC[C@]4(C)[C@H]3CC[C@]12C` (stereo partly drawn) [Compound 2, (1R,3aR,5aR,6R,7S,9aR,9bR,11aR)-4-fluoro-1-[(2R)-6-hydroxy-6-{2-[(trifluoromethyl)oxy]phenyl}hexan-2-yl]-9a,11a-dimethyl-2,3,3a,5,5a,6,7,8,9,9a,9b,10,11,11a-tetradecahydro-1H-cyclopenta[1,2-a]phenanthrene-6,7-diol], the half-inhibitory concentration (IC50) turned out to be 0.45 µM.
In the case of `C[C@H](CCCC(O)c1cncc2c1cnn2C)[C@H]1CC[C@H]2[C@H]3[C@H](CC[C@]12C)[C@@]1(C)CC[C@H](O)[C@H](O)[C@@H]1CC3(F)F` (stereo partly drawn) [Compound 275, (1R,3aS,3bS,5aR,6R,7 S,9aR,9bS,11aR)-4,4-Difluoro-1-[(2R)-6-hydroxy-6-(1-methylpyrazolo[3,4-c]pyridin-4-yl)hexan-2-yl]-9a,11a-dimethylhexadecahyd ro-1H-cyclopenta[1,2-a]phenanthrene-6,7-diol], the IC50 came to 0.26 µM.
As for `C[C@H](CCCC(O)c1cccc2nn[nH]c12)[C@H]1CC[C@H]2[C@H]3[C@H](CC[C@]12C)[C@@]1(C)CC[C@H](O)[C@H](O)[C@@H]1CC3(F)F` (single isomer, unassigned) [Compound 294, (1R,3aS,3bS,5aR,6R,7S,9aR,9bS,11aR)-4,4-difluoro-1-[(2R,6S)-6-hydroxy-6-(3H-benzo[d][1,2,3]triazol-4-yl)hexan-2-yl]-9a,11a-dimethylhexadecahydro-1H-cyclopenta[1,2-a]phenanthrene-6,7-diol or (1R,3aS,3bS,5aR,6R,7S,9aR,9bS,11aR)-4,4-difluoro-1-[(2R,6R)-6-hydroxy-6-(3H-benzo[d][1,2,3]triazol-4-yl)hexan-2-yl]-9a,11a-dimethylhexadecahydro-1H-cyclopenta[1,2-a]phenanthrene-6,7-diol], the IC50 stood at 0.424 µM.
For the compound `C[C@H](CCC[C@@H](O)c1ncc(F)cc1F)[C@H]1CC[C@H]2[C@H]3[C@H](CC[C@]12C)[C@@]1(C)CC[C@H](O)[C@H](O)[C@@H]1CC3(F)F` (single isomer, unassigned) [Compound 280], the 50% inhibitory concentration (IC50) was 0.238 µM.
With `COc1ncc(F)cc1[C@@H](O)CCC[C@@H](C)[C@H]1CC[C@H]2[C@H]3[C@H](CC[C@]12C)[C@@]1(C)CC[C@H](O)[C@H](O)[C@@H]1CC3(F)F` (single isomer, unassigned) [Compound 228], the concentration for half-maximal inhibition (IC50) amounted to 1.42 µM.
For `C[C@H](CCCC(O)c1cccnc1F)[C@H]1CC[C@H]2[C@H]3[C@H](CC[C@]12C)[C@@]1(C)CC[C@H](O)[C@H](O)[C@@H]1CC3(F)F` (stereo partly drawn) [Compound 80, (1R,3aS,3bS,5aR,6R,7S,9aR,9bS,11aR)-4,4-difluoro-1-[(2R)-6-(2-fluoropyridin-3-yl)-6-hydroxyhexan-2-yl]-9a,11a-dimethylhexadecahydro-1H-cyclopenta[1,2-a]phenanthrene-6,7-diol], the half-inhibitory concentration (IC50) came to 0.514 µM.
Take `COc1cc(Cl)ccc1[C@H](O)CCC[C@@H](C)[C@H]1CC[C@H]2C3=C(F)C[C@H]4[C@@H](O)[C@@H](O)CC[C@]4(C)[C@H]3CC[C@]12C` [Compound 110, (1R,3aR,5aR,6R,7S,9aR,9bR,11aR)-1-[(2R,6R)-6-(4-chloro-2-methoxyphenyl)-6-hydroxyhexan-2-yl]-4-fluoro-9a,11a-dimethyl-2,3,3a,5,5a,6,7,8,9,9a,9b,10,11,11a-tetradecahydro-1H-cyclopenta[1,2-a]phenanthrene-6,7-diol]: the concentration for half-maximal inhibition (IC50) was 1.13 µM.

The same experiment, now with this note: Huh-7/SRE-luc cells, sterol-deficient medium, 16 hours, 0.01-10 µM.
As for `COc1ccc(F)c(C(O)CCC[C@@H](C)[C@H]2CC[C@H]3[C@H]4[C@H](CC[C@]23C)[C@@]2(C)CC[C@H](O)[C@H](O)[C@@H]2CC4(F)F)c1` (single isomer, unassigned) [Compound 167, (1R,3aS,3bS,5aR,6R,7S,9aR,9bS,11aR)-4,4-difluoro-1-[(2R,6R)-6-(2-fluoro-5-methoxyphenyl)-6-hydroxyhexan-2-yl]-9a,11a-dimethylhexadecahydro-1H-cyclopenta[1,2-a]phenanthrene-6,7-diol or (1R,3aS,3bS,5aR,5aR,6R,7S,9aR,9bS,11aR) -4,4-difluoro-1-[(2R,6S)-6-(2-fluoro-5-methoxyphenyl)-6-hydroxyhexan-2-yl]-9a,11a-dimethylhexadecahydro-1H-cyclopenta[1,2-a]phenanthrene-6,7-diol], the IC50 was 0.88 µM.
As to `C[C@H](CCCC(O)c1cccc2nn[nH]c12)[C@H]1CC[C@H]2[C@H]3[C@H](CC[C@]12C)[C@@]1(C)CC[C@H](O)[C@H](O)[C@@H]1CC3(F)F` (single isomer, unassigned) [Compound 295, (1R,3aS,3bS,5aR,6R,7S,9aR,9bS,11aR)-4,4-difluoro-1-[(2R,6R)-6-hydroxy-6-(3H-benzo[d][1,2,3]triazol-4-yl)hexan-2-yl]-9a,11a-dimethylhexadecahydro-1H-cyclopenta[1,2-a]phenanthrene-6,7-diol or (1R,3aS,3bS,5aR,6R,7S,9aR,9bS,11aR)-4,4-difluoro-1-[(2R,6S)-6-hydroxy-6-(3H-benzo[d][1,2,3]triazol-4-yl)hexan-2-yl]-9a,11a-dimethylhexadecahydro-1H-cyclopenta[1,2-a]phenanthrene-6,7-diol], the IC50 worked out at 0.275 µM.
The same measure, in the same setting: in the case of `COc1cccc(F)c1C(O)CCCC(C)C1CCC2C3=C(F)CC4C(O)C(O)CCC4(C)C3CCC21C` (single isomer, unassigned) [Compound 164] it was 0.295 µM.
